This passage reports IC50 results from patent US20250019385A1, “SPIROCYCLIC ANNULATED 2-AMINO-3-CYANO THIOPHENES AND DERIVATIVES FOR THE TREATMENT OF CANCER” (Boehringer Ingelheim International GmbH, priority 2023, published 2025).

Chain of KRAS (G12V)::CRAF protein::protein interaction (P01116 other isoform, or with tags, fused parts or gaps G12V/C118S): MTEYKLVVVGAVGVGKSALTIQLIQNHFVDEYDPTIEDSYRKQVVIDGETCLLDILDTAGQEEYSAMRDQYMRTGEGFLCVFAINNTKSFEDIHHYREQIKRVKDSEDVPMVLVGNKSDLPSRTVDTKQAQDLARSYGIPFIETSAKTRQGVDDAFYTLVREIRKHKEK
Chain of KRAS (G12C)::SOS1 protein-protein interaction (P01116 other isoform, or with tags, fused parts or gaps G12C/C51S/C80L/C118S): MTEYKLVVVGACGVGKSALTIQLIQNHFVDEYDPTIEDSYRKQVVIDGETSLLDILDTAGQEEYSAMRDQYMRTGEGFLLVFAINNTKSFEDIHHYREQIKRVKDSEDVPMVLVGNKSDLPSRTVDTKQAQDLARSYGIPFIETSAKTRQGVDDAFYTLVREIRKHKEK

The first assay addresses KRAS (G12V)::CRAF protein::protein interaction (Homo sapiens (Human), UniProt P01116, C118S/G12V). Briefly: KRAS TR-FRET assay (KRAS G12V::CRAF, GTP).
Details: not given
The assay is classed as binding. As to the method: (§1) This assay measures the inhibitory effect of compounds on KRAS::CRAF protein::protein interactions in the presence of GTP using Time-resolved fluorescence energy transfer (TR-FRET).
(§2) The following wildtype or mutant alleles of KRAS and CRAF protein have been used at the given concentrations:
KRAS (G12V) 1-169, C118S, N-terminal 6His-tag, C-terminal avi-tag (Boehringer Ingelheim in house protein prep); final assay concentration 15 nM.
(§3) CRAF Ras binding domain, GST-tag, TEV cleavage site (Boehringer Ingelheim in house protein prep); final assay concentration 15 nM.
(§4) Test compounds dissolved in DMSO were dispensed onto assay plates (Proxiplate 384 PLUS, white, PerkinElmer; 6008289) using an Access Labcyte Workstation with the Labcyte Echo 55x. For the chosen highest assay concentration of 100 μM, 150 nl of compound solution was transferred from a 10 mM DMSO compound stock solution. A series of eleven fivefold dilutions per compound was transferred to the assay plate, compound dilutions were tested in duplicates. DMSO was added as backfill to a total volume of 150 nl.
(§5) The assay runs on a fully automated robotic system. To 150 nl of compound dilution 15 μl of a mix including the respective KRAS allele, CRAF (e.g. KRAS (G12D)::CRAF; final assay concentrations see above), GTP nucleotide (Sigma G8877; final assay concentration 10 μM), Lance Eu—W1024 labeled Streptavidin (PerkinElmer, Cat No AD0063; final assay concentration 1.5 nM) and Anti-GST surelight APC (PerkinElmer, Cat No AD0059G; final assay concentration 30 nM) in assay buffer (1×PBS, 0.1% BSA, 0.05% Tween 20) are added into columns 1-23 and 15 μL of the solution without the respective KRAS allele were added to row 24.
(§6) Plates are kept at room temperature in a darkened incubator. After 60 minutes incubation time the signal is measured in a PerkinElmer Envision HTS Multilabel Reader using the TR-FRET LANCE Ultra specs from PerkinElmer.
(§7) Each plate contains 16 wells of a negative control (diluted DMSO instead of test compound; w respective KRAS allele; column 23) and 16 wells of a positive control (diluted DMSO instead of test compound; w/o respective KRAS allele; column 24).
(§8) IC50 values were calculated and analyzed with Boehringer Ingelheim's MEGALAB 50 application using a 4 parametric logistic model.
(§9) Tables of example compounds disclosed herein contain IC50 values determined using the above assays (see Table 44).
(TR-FRET usually uses a lanthanide donor and a delayed reading to cut background.)
As for `C[C@H](Oc1nc(-c2onc3c2CCC[C@@]32CCCc3sc(N)c(C#N)c32)nc2c1n(C)c(=O)n2[C@@H]1CCOC1)C12CCCN1CCC2` [I-25], inhibition was half-maximal at 26 nM (IC50). In other words, the double-digit nanomolar range.

`C[C@H](Oc1nc(-c2onc3c2CCC[C@@]32CCCc3sc(N)c(C#N)c32)nc2c1ncn2[C@@H]1CCOC1)[C@@H]1CCCN1C` [I-38] returned an IC50 of 70 nM.

In turn, `C[C@H](Oc1nc(-c2noc3c2CCC[C@@]32CCCc3sc(N)c(C#N)c32)nc2c1CC[C@]21CNCCO1)[C@@H]1C[C@@H](F)CN1C` [II-20] yielded an IC50 of 129 nM.

Compound `C[C@H](Oc1nc(-c2onc3c2CCC[C@@]32CCCc3sc(N)c(C#N)c32)nc2c1n(C)c(=O)n2[C@@H]1CCOC1)[C@@H]1CC[C@H](C)N1C` [I-26] displayed an IC50 of 22 nM.

`C[C@H](Oc1nc(-c2noc3c2CCC[C@@]32CCCc3sc(N)c(C#N)c32)nc2c1COC[C@]21CCOC1)[C@@H]1CCCN1C` [II-8] returned an IC50 of 11 nM. Compared with the last compound, the IC50 is about 2-fold lower.

Take `C[C@H](Oc1nc(-c2noc3c2CCC[C@@]32CCCc3sc(N)c(C#N)c32)nc2c1CNC[C@]21CCOC1)[C@@H]1CCCN1C` [II-15]: the IC50 was 17 nM.

Turning to `CO[C@H]1CCN(C)[C@@H]1[C@H](C)Oc1nc(-c2noc3c2CCC[C@@]32CCCc3sc(N)c(C#N)c32)nc2c1n(C)c(=O)n2[C@@H]1CCOC1` [II-1], half-maximal inhibition (IC50) required 61 nM.

As for `C[C@H](Oc1nc(-c2onc3c2CCC[C@@]32CCCc3sc(N)c(C#N)c32)nc2c1n(C)c(=O)n2[C@H]1CCOC1)[C@@H]1CCCN1C` [I-9], the IC50 was determined as 199 nM.

For a further assay, the target named is KRAS (WT)::CRAF protein::protein interaction (Homo sapiens (Human), UniProt P01116). Briefly: KRAS TR-FRET assay (KRAS WT::CRAF, GTP). The assay is classed as binding.
Chain of KRAS (WT)::CRAF protein::protein interaction (P01116 other isoform, or with tags, fused parts or gaps): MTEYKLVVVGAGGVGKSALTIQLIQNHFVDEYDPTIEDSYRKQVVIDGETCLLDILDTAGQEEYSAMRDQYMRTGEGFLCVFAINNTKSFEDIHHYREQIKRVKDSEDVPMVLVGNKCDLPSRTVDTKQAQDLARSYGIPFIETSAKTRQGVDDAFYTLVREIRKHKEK
Details: not given
The protocol: as §1, §2
KRAS (WT) 1-169, N-terminal 6His-tag, C-terminal avi-tag (Boehringer Ingelheim in house protein prep); final assay concentration 15 nM.
as §3, §4, §5, §6, §7, §8, §9
In the case of `C[C@H](Oc1nc(-c2onc3c2CCC[C@@]32CCCc3sc(N)c(C#N)c32)nc2c1n(C)c(=O)n2[C@@H]1CCOC1)C12CCCN1CCC2` [I-25], the IC50 was found to be 53 nM. That is a double-digit nanomolar value.

In turn, `C[C@H](Oc1nc(-c2onc3c2CCC[C@@]32CCCc3sc(N)c(C#N)c32)nc2c1ncn2[C@@H]1CCOC1)[C@@H]1CCCN1C` [I-38] had an IC50 of 139 nM.

`C[C@H](Oc1nc(-c2noc3c2CCC[C@@]32CCCc3sc(N)c(C#N)c32)nc2c1CC[C@]21CNCCO1)[C@@H]1C[C@@H](F)CN1C` [II-20] showed an IC50 of 815 nM.

Compound `C[C@H](Oc1nc(-c2onc3c2CCC[C@@]32CCCc3sc(N)c(C#N)c32)nc2c1n(C)c(=O)n2[C@@H]1CCOC1)[C@@H]1CC[C@H](C)N1C` [I-26] gave an IC50 of 50 nM.

In turn, `C[C@H](Oc1nc(-c2noc3c2CCC[C@@]32CCCc3sc(N)c(C#N)c32)nc2c1COC[C@]21CCOC1)[C@@H]1CCCN1C` [II-8] yielded an IC50 of 24 nM.

Take `C[C@H](Oc1nc(-c2noc3c2CCC[C@@]32CCCc3sc(N)c(C#N)c32)nc2c1CNC[C@]21CCOC1)[C@@H]1CCCN1C` [II-15]: the IC50 was found to be 40 nM. This IC50 is about 1.7-fold higher than that of the compound before.

The compound `CO[C@H]1CCN(C)[C@@H]1[C@H](C)Oc1nc(-c2noc3c2CCC[C@@]32CCCc3sc(N)c(C#N)c32)nc2c1n(C)c(=O)n2[C@@H]1CCOC1` [II-1] yielded a half-inhibitory concentration (IC50) of 54 nM. The IC50 values of the last two compounds are within 1.5-fold of each other.

Turning to `C[C@H](Oc1nc(-c2onc3c2CCC[C@@]32CCCc3sc(N)c(C#N)c32)nc2c1n(C)c(=O)n2[C@H]1CCOC1)[C@@H]1CCCN1C` [I-9], the half-maximal inhibitory concentration (IC50) is 611 nM. Compared with the last compound, the IC50 is about 11-fold higher.

A further assay has as its target KRAS (G12C)::SOS1 protein-protein interaction (Homo sapiens (Human), UniProt P01116, C118S/C51S/C80L/G12C). Briefly: KRAS::SOS1 AlphaScreen binding assay (KRAS G12C). The following applies: GDP. From the text: This assay can be used to examine the potency with which compounds according to the invention binding to (mutated) KRAS inhibit the protein-protein interaction between SOS1 and (mutated) KRAS e.g. KRAS G12C, KRAS G12D. […] Low IC50 values in this assay setting are indicative of strong inhibition of protein-protein interaction between SOS1 and KRAS:
These assays measure the inhibitory effect of compounds on KRAS mutant protein-protein interactions using the Alpha Screen technology by Perkin Elmer.
The following (mutant) enzyme forms of KRAS and interacting proteins are used in these assays at the given concentrations:
KRAS (G12C) 1-169, N-terminal 6His-tag for purification, cleaved off, C-terminal avi-tag, biotinylated, mutations: C51S, C80L, C118S (in house); final assay concentration 7.5 nM and SOS1 564-1049, N-terminal 229 GST-tag, TEV cleavage site (Viva Biotech Ltd); final assay concentration 5 nM;
Test compounds dissolved in DMSO are dispensed onto assay plates (Proxiplate 384 PLUS, white, PerkinElmer; 6008289) using an Access Labcyte Workstation with the Labcyte Echo 55x. For the chosen highest assay concentration of 100 μM, 150 nL of compound solution are transferred from a 10 mM DMSO compound stock solution. A series of eleven fivefold dilutions per compound are transferred to the assay plate, compound dilutions are tested in duplicates. DMSO are added as backfill to a total volume of 150 nL.
The assays run on a fully automated robotic system in a darkened room below 100 Lux. To 150 nl of compound dilution 10 μl of a mix including KRAS mutant protein, SOS1 (final assay concentrations see above) and GDP nucleotide (Sigma G7127; final assay concentration 10 μM) in assay buffer (1×PBS, 0.1% BSA, 0.05% Tween 20) are added into columns 1-24.
After 30 minutes incubation time 5 μl of Alpha Screen bead mix in assay buffer are added into columns 1-23. Bead mix consists of AlphaLISA Glutathione Acceptor Beads (PerkinElmer, Cat No AL109) and AlphaScreen Streptavidin Donor Beads (PerkinElmer Cat No 6760002) in assay buffer at a final assay concentration of 10 μg/mL each.
Plates are kept at room temperature in a darkened incubator. After an additional 60 minutes incubation time the signal is measured in a PerkinElmer Envision HTS Multilabel Reader using the AlphaScreen specs from PerkinElmer.
Each plate contains up to 16 wells of a negative control depending on the dilution procedure (platewise or serial) (DMSO instead of test compound; with KRAS mutant::SOS1 GOP mix and bead mix; column 23) and 16 wells of a positive control (DMSO instead of test compound; with KRAS mutant::SOS1 GOP mix w/o bead mix; column 24).
As internal control known inhibitors of KRAS mutant::SOS1 interaction can be measured on each compound plate.
IC50 values are calculated and analyzed with Boehringer Ingelheim's MEGALAB C50 application using a 4 parametric logistic model.
Tables of example compounds disclosed herein contain IC50 values determined using the above assays (see Table 43).
A general note: In Alpha technology, singlet oxygen from a donor bead excites a nearby acceptor bead.
Regarding `C[C@H](Oc1nc(-c2onc3c2CCC[C@@]32CCCc3sc(N)c(C#N)c32)nc2c1n(C)c(=O)n2[C@@H]1CCOC1)C12CCCN1CCC2` [I-25], the IC50 was found to be 2 nM.

`C[C@H](Oc1nc(-c2onc3c2CCC[C@@]32CCCc3sc(N)c(C#N)c32)nc2c1ncn2[C@@H]1CCOC1)[C@@H]1CCCN1C` [I-38] yielded an IC50 of 2 nM.

In the case of `C[C@H](Oc1nc(-c2noc3c2CCC[C@@]32CCCc3sc(N)c(C#N)c32)nc2c1CC[C@]21CNCCO1)[C@@H]1C[C@@H](F)CN1C` [II-20], the IC50 turned out to be 2 nM.

For `C[C@H](Oc1nc(-c2onc3c2CCC[C@@]32CCCc3sc(N)c(C#N)c32)nc2c1n(C)c(=O)n2[C@@H]1CCOC1)[C@@H]1CC[C@H](C)N1C` [I-26], the IC50 was 2 nM.

`C[C@H](Oc1nc(-c2noc3c2CCC[C@@]32CCCc3sc(N)c(C#N)c32)nc2c1COC[C@]21CCOC1)[C@@H]1CCCN1C` [II-8] returned an IC50 of 1 nM. Compared with the last compound, the IC50 is about 2-fold lower.

`C[C@H](Oc1nc(-c2noc3c2CCC[C@@]32CCCc3sc(N)c(C#N)c32)nc2c1CNC[C@]21CCOC1)[C@@H]1CCCN1C` [II-15]: the IC50 worked out at 2 nM.

For the compound `CO[C@H]1CCN(C)[C@@H]1[C@H](C)Oc1nc(-c2noc3c2CCC[C@@]32CCCc3sc(N)c(C#N)c32)nc2c1n(C)c(=O)n2[C@@H]1CCOC1` [II-1], the IC50 was 1 nM.

Take `C[C@H](Oc1nc(-c2onc3c2CCC[C@@]32CCCc3sc(N)c(C#N)c32)nc2c1n(C)c(=O)n2[C@H]1CCOC1)[C@@H]1CCCN1C` [I-9]: the IC50 came out at 2 nM.

For orientation: IC50 means the concentration that inhibits the measured activity by half. Low values mean greater potency, high ones weaker potency.
